The test system of this experiment is MV-4-11 cells. Put plainly: Gene expression microarray analysis (Affymetrix PrimeView) and GSEA. Conditions: MV-4-11 cells, 48 hours. The class given is cell-based, human. The arrangement: RFU PODN (11730768_x_at) / Fold change /veh PODN (11730768_x_at) / RFU LINC00158 (11744669_a_at) / Fold change /veh LINC00158 (11744669_a_at) / RFU DUSP10 (11751237_a_at) / Fold change /veh DUSP10 (11751237_a_at) / RFU ID3 (11757404_x_at) / Fold change /veh ID3 (11757404_x_at) / RFU PLEKHG5 (11737974_s_at) / Fold change /veh PLEKHG5 (11737974_s_at) / RFU LRRC4B (11730491_at) / Fold change /veh LRRC4B (11730491_at) / RFU GIMAP4 (11747438_a_at) / Fold change /veh GIMAP4 (11747438_a_at) / RFU KRT8 (11758183_x_at) / Fold change /veh KRT8 (11758183_x_at) / RFU CNN1 (11734310_a_at) / Fold change /veh CNN1 (11734310_a_at) / RFU VPS37D (11726825_at) / Fold change /veh VPS37D (11726825_at) / RFU C10orf10 (11716522_x_at) / Fold change /veh C10orf10 (11716522_x_at) / RFU KIR2DL2 /// KIR2DL4 /// KIR2DL5A /// KIR2DL5B /// KIR2DS1 /// KIR2DS2 /// KIR2DS3 /// KIR2DS4 /// KIR3DL3 /// KIR3DL3 /// KIR3DS1 (11738374_at) / Fold change /veh KIR2DL2 /// KIR2DL4 /// KIR2DL5A /// KIR2DL5B /// KIR2DS1 /// KIR2DS2 /// KIR2DS3 /// KIR2DS4 /// KIR3DL3 /// KIR3DL3 /// KIR3DS1 (11738374_at) / RFU C1QL1 (11718748_at) / Fold change /veh C1QL1 (11718748_at) / RFU TMPRSS4 (11747572_a_at) / Fold change /veh TMPRSS4 (11747572_a_at) / RFU HAMP (11756126_x_at) / Fold change /veh HAMP (11756126_x_at) / RFU RNFT2 (11725882_a_at) / Fold change /veh RNFT2 (11725882_a_at) / RFU NR4A2 (11747474_a_at) / Fold change /veh NR4A2 (11747474_a_at) / RFU ABCC12 (11746883_a_at) / Fold change /veh ABCC12 (11746883_a_at) / RFU TMEM136 (11760407_x_at) / Fold change /veh TMEM136 (11760407_x_at) / RFU CLDN22 /// WWC2 (11732394_at) / Fold change /veh CLDN22 /// WWC2 (11732394_at) / RFU HLA-DPB1 (11760878_x_at) / Fold change /veh HLA-DPB1 (11760878_x_at) / RFU SPINT1 (11716480_a_at) / Fold change /veh SPINT1 (11716480_a_at) / RFU GAP43 (11754022_s_at) / Fold change /veh GAP43 (11754022_s_at) / RFU A4GNT (11735810_at) / Fold change /veh A4GNT (11735810_at) / RFU PRB3 (11715151_x_at) / Fold change /veh PRB3 (11715151_x_at) / RFU TUBB4B (11761932_at) / Fold change /veh TUBB4B (11761932_at) / RFU CAPN14 (11732068_a_at) / Fold change /veh CAPN14 (11732068_a_at) / RFU TMCC2 (11721928_a_at) / Fold change /veh TMCC2 (11721928_a_at) / RFU IRGQ (11745062_a_at) / Fold change /veh IRGQ (11745062_a_at) / RFU FAM174B (11720279_a_at) / Fold change /veh FAM174B (11720279_a_at) / RFU TMPRSS4 (11748680_a_at) / Fold change /veh TMPRSS4 (11748680_a_at) / RFU FAM212B (11763350_a_at) / Fold change /veh FAM212B (11763350_a_at) / RFU PLEKHG5 (11743358_a_at) / Fold change /veh PLEKHG5 (11743358_a_at) / RFU ZSCAN30 (11745921_a_at) / Fold change /veh ZSCAN30 (11745921_a_at) / RFU CMKLR1 (11741424_a_at) / Fold change /veh CMKLR1 (11741424_a_at) / RFU LOC101060620 /// MAPK8IP1 (11723275_at) / Fold change /veh LOC101060620 /// MAPK8IP1 (11723275_at) / RFU SPTSSB (11747773_x_at) / Fold change /veh SPTSSB (11747773_x_at) / RFU PRSS12 (11739890_at) / Fold change /veh PRSS12 (11739890_at) / RFU BIN1 (11741810_x_at) / Fold change /veh BIN1 (11741810_x_at) / RFU WNT11 (11732464_a_at) / Fold change /veh WNT11 (11732464_a_at) / RFU C10orf10 (11716521_a_at) / Fold change /veh C10orf10 (11716521_a_at) / RFU C5orf56 (11738089_at) / Fold change /veh C5orf56 (11738089_at) / RFU CYB561 (11721691_x_at) / Fold change /veh CYB561 (11721691_x_at) / RFU ANKRD19P (11752326_a_at) / Fold change /veh ANKRD19P (11752326_a_at) / RFU OR2T12 /// OR2T33 /// OR2T8 (11738714_s_at) / Fold change /veh OR2T12 /// OR2T33 /// OR2T8 (11738714_s_at) / RFU VCAN (11748164_a_at) / Fold change /veh VCAN (11748164_a_at) / RFU JSRP1 (11732532_at) / Fold change /veh JSRP1 (11732532_at) / RFU KRTAP10-11 (11738290_x_at) / Fold change /veh KRTAP10-11 (11738290_x_at) / RFU MYO3A (11730013_a_at) / Fold change /veh MYO3A (11730013_a_at) / RFU EBF3 (11725865_a_at) / Fold change /veh EBF3 (11725865_a_at) / RFU CAMK2N1 (11719241_x_at) / Fold change /veh CAMK2N1 (11719241_x_at) / RFU C5orf56 (11738088_a_at) / Fold change /veh C5orf56 (11738088_a_at) / RFU OLFML3 (11715873_a_at) / Fold change /veh OLFML3 (11715873_a_at) / RFU LOC100653217 /// NTM (11731650_a_at) / Fold change /veh LOC100653217 /// NTM (11731650_a_at) / RFU MAPK11 (11762145_a_at) / Fold change /veh MAPK11 (11762145_a_at) / RFU FIZ1 (11724087_x_at) / Fold change /veh FIZ1 (11724087_x_at) / RFU OASL (11726364_x_at) / Fold change /veh OASL (11726364_x_at) / RFU SOX15 (11748057_x_at) / Fold change /veh SOX15 (11748057_x_at) / RFU CD79A (11719716_a_at) / Fold change /veh CD79A (11719716_a_at) / RFU HIST1H1D (11736915_at) / Fold change /veh HIST1H1D (11736915_at) / RFU CASKIN2 (11723855_a_at) / Fold change /veh CASKIN2 (11723855_a_at) / RFU LOC730098 (11760151_x_at) / Fold change /veh LOC730098 (11760151_x_at) / RFU OR4N2 (11742367_at) / Fold change /veh OR4N2 (11742367_at) / RFU PRRT2 (11749266_a_at) / Fold change /veh PRRT2 (11749266_a_at) / RFU SNX32 (11753110_a_at) / Fold change /veh SNX32 (11753110_a_at) / RFU CDHR5 (11726645_a_at) / Fold change /veh CDHR5 (11726645_a_at) / RFU RCAN1 (11760418_a_at) / Fold change /veh RCAN1 (11760418_a_at) / RFU FAM167A (11723789_a_at) / Fold change /veh FAM167A (11723789_a_at) / RFU FAM26E (11764081_at) / Fold change /veh FAM26E (11764081_at) / RFU ISYNA1 (11749810_s_at) / Fold change /veh ISYNA1 (11749810_s_at) / RFU ACY1 (11761880_at) / Fold change /veh ACY1 (11761880_at) / RFU 11764098_at / Fold change /veh 11764098_at / RFU SAMD14 (11745864_x_at) / Fold change /veh SAMD14 (11745864_x_at) / RFU NPB (11741838_a_at) / Fold change /veh NPB (11741838_a_at) / RFU TMPRSS6 (11731388_a_at) / Fold change /veh TMPRSS6 (11731388_a_at) / RFU KRTAP10-2 (11738614_at) / Fold change /veh KRTAP10-2 (11738614_at) / RFU ARHGAP8 /// PRR5-ARHGAP8 (11727945_x_at) / Fold change /veh ARHGAP8 /// PRR5-ARHGAP8 (11727945_x_at) / RFU KRTAP5-7 /// NADSYN1 (11734609_at) / Fold change /veh KRTAP5-7 /// NADSYN1 (11734609_at) / RFU RASL12 (11751679_a_at) / Fold change /veh RASL12 (11751679_a_at) / RFU CDKN2B (11736163_a_at) / Fold change /veh CDKN2B (11736163_a_at) / RFU PRF1 (11729649_at) / Fold change /veh PRF1 (11729649_at) / RFU, ZNF638 /// ZNF638-IT1 / Fold change vs veh, ZNF638 /// ZNF638-IT1 / RFU, PANK3 / Fold change vs veh, PANK3 / RFU, SH3YL1 / Fold change vs veh, SH3YL1 / RFU, ZEB2 / Fold change vs veh, ZEB2 / RFU, NRIP1 / Fold change vs veh, NRIP1 / RFU, PTTG1IP / Fold change vs veh, PTTG1IP / RFU, CAPN2 / Fold change vs veh, CAPN2 / RFU, MED14 / Fold change vs veh, MED14 / RFU, SNORA58 / Fold change vs veh, SNORA58 / RFU, C1orf63 / Fold change vs veh, C1orf63 / RFU, LRRFIP1 / Fold change vs veh, LRRFIP1 / RFU, NDUFAF7 / Fold change vs veh, NDUFAF7 / RFU, SLC12A2 / Fold change vs veh, SLC12A2 / RFU, IBTK / Fold change vs veh, IBTK / RFU, ESF1 / Fold change vs veh, ESF1 / Fold change vs veh, TMEM50B / RFU, TAOK1 / Fold change vs veh, TAOK1 / RFU, ACBD3 / Fold change vs veh, ACBD3 / RFU, TMA16 / Fold change vs veh, TMA16 / RFU, RWDD3 / Fold change vs veh, RWDD3 / RFU, BCAT1 / Fold change vs veh, BCAT1 / RFU, EDEM3 / Fold change vs veh, EDEM3 / RFU, TMEM33 / Fold change vs veh, TMEM33 / RFU, WDR75 / Fold change vs veh, WDR75 / RFU, AHCTF1 / Fold change vs veh, AHCTF1 / RFU, TFRC / Fold change vs veh, TFRC / RFU, ZDHHC17 / Fold change vs veh, ZDHHC17 / RFU, NOM1 / Fold change vs veh, NOM1 / RFU, ARL8B / Fold change vs veh, ARL8B / RFU, ZBTB11 / Fold change vs veh, ZBTB11 / RFU, TAMM41 / Fold change vs veh, TAMM41 / RFU, KIAA1704 /// LOC100996395 / Fold change vs veh, KIAA1704 /// LOC100996395 / RFU, ING1 / Fold change vs veh, ING1 / RFU, TRMT61B / Fold change vs veh, TRMT61B / RFU, FUBP3 / Fold change vs veh, FUBP3 / RFU, TP53 / Fold change vs veh, TP53 / RFU, TNKS2 / Fold change vs veh, TNKS2 / RFU, ZFP14 / Fold change vs veh, ZFP14 / RFU, ACTR2 / Fold change vs veh, ACTR2 / RFU, PPP3R1 / Fold change vs veh, PPP3R1 / RFU, PIK3R1 / Fold change vs veh, PIK3R1 / RFU, HNRNPA1 / Fold change vs veh, HNRNPA1 / RFU, RNF170 / Fold change vs veh, RNF170 / RFU, ZNF28 / Fold change vs veh, ZNF28 / RFU, RNGTT / Fold change vs veh, RNGTT / RFU, OGT / Fold change vs veh, OGT / RFU, BRD1 / Fold change vs veh, BRD1 / RFU, MARS / Fold change vs veh, MARS / RFU, ZNF655 / Fold change vs veh, ZNF655 / RFU, FAHD1 / Fold change vs veh, FAHD1 / RFU, BDP1 / Fold change vs veh, BDP1 / RFU, LRRCC1 / Fold change vs veh, LRRCC1 / RFU, ARID1A / Fold change vs veh, ARID1A / RFU, ZNF146 / Fold change vs veh, ZNF146 / RFU, ZNF330 / Fold change vs veh, ZNF330 / RFU, GPN3 / Fold change vs veh, GPN3 / RFU, C9orf123 / Fold change vs veh, C9orf123 / RFU, N4BP2L2 / Fold change vs veh, N4BP2L2 / RFU, ARFIP1 / Fold change vs veh, ARFIP1 / RFU, FAM179B / Fold change vs veh, FAM179B / RFU, BCL10 / Fold change vs veh, BCL10 / RFU, UHRF1BP1L / Fold change vs veh, UHRF1BP1L / RFU, BET1 / Fold change vs veh, BET1 / RFU, CNOT2 / Fold change vs veh, CNOT2 / RFU, ZNF268 / Fold change vs veh, ZNF268 / Fold change vs veh, ZNF507 / RFU, DGCR2 / Fold change vs veh, DGCR2 / RFU, WDSUB1 / Fold change vs veh, WDSUB1 / Fold change vs veh, HSP90B1 /// MIR3652 / RFU, ADSS / Fold change vs veh, ADSS / RFU, GK / Fold change vs veh, GK / RFU, ZNF148 / Fold change vs veh, ZNF148 / RFU, TAF9 / Fold change vs veh, TAF9 / RFU, SLC1A5 / Fold change vs veh, SLC1A5 / RFU, SLMO2 / Fold change vs veh, SLMO2 / RFU, ABCC4 / Fold change vs veh, ABCC4 / RFU, LOC101060439 /// RAP1B / Fold change vs veh, LOC101060439 /// RAP1B / RFU, RFX7 / Fold change vs veh, RFX7 / RFU, GTPBP10 / Fold change vs veh, GTPBP10 / RFU, CNEP1R1 / Fold change vs veh, CNEP1R1 / RFU, BIVM-ERCC5 /// ERCC5 / Fold change vs veh, BIVM-ERCC5 /// ERCC5 / RFU, ILF3 / Fold change vs veh, ILF3 / RFU 11762660_at / Fold change /veh 11762660_at / RFU VCAN (11757783_s_at) / Fold change /veh VCAN (11757783_s_at) / RFU DDX43 (11728927_at) / Fold change /veh DDX43 (11728927_at) / RFU KRT8 (11758188_x_at) / Fold change /veh KRT8 (11758188_x_at) / RFU NKD1 (11759106_at) / Fold change /veh NKD1 (11759106_at) / RFU SRD5A1 (11742802_a_at) / Fold change /veh SRD5A1 (11742802_a_at) / RFU TPSAB1 /// TPSB2 (11721975_s_at) / Fold change /veh TPSAB1 /// TPSB2 (11721975_s_at) / RFU GSTM3 (11746129_a_at) / Fold change /veh GSTM3 (11746129_a_at) / RFU IL23R (11737362_x_at) / Fold change /veh IL23R (11737362_x_at) / RFU TMEM51 (11727254_a_at) / Fold change /veh TMEM51 (11727254_a_at) / RFU PIWIL2 (11732686_x_at) / Fold change /veh PIWIL2 (11732686_x_at) / RFU ORM1 (11744905_x_at) / Fold change /veh ORM1 (11744905_x_at) / RFU CCDC152 (11743942_at) / Fold change /veh CCDC152 (11743942_at) / RFU ECM1 (11717891_a_at) / Fold change /veh ECM1 (11717891_a_at) / RFU IL23R (11748794_a_at) / Fold change /veh IL23R (11748794_a_at) / RFU TNFAIP8L3 (11732012_x_at) / Fold change /veh TNFAIP8L3 (11732012_x_at) / RFU MBOAT4 (11741988_at) / Fold change /veh MBOAT4 (11741988_at) / RFU 11764193_at / Fold change /veh 11764193_at / RFU TMEM53 (11763286_at) / Fold change /veh TMEM53 (11763286_at) / RFU MAGEB2 (11727129_at) / Fold change /veh MAGEB2 (11727129_at) / RFU TMEM200A (11744735_a_at) / Fold change /veh TMEM200A (11744735_a_at) / RFU CCDC152 (11751479_a_at) / Fold change /veh CCDC152 (11751479_a_at) / RFU FAM211A (11726209_a_at) / Fold change /veh FAM211A (11726209_a_at) / RFU RGS16 (11746705_a_at) / Fold change /veh RGS16 (11746705_a_at) / RFU VCAN (11755009_s_at) / Fold change /veh VCAN (11755009_s_at) / RFU RHOB (11743442_s_at) / Fold change /veh RHOB (11743442_s_at) / RFU RGS16 (11720943_a_at) / Fold change /veh RGS16 (11720943_a_at) / RFU RGS16 (11720944_at) / Fold change /veh RGS16 (11720944_at) / RFU, VPS4B / Fold change vs veh, VPS4B / RFU, CREB1 / Fold change vs veh, CREB1 / RFU, DNAJC13 / Fold change vs veh, DNAJC13 / RFU, GNAQ / Fold change vs veh, GNAQ / RFU, CDK5R1 / Fold change vs veh, CDK5R1 / RFU, ZRANB3 / Fold change vs veh, ZRANB3 / RFU, CUL4A / Fold change vs veh, CUL4A / RFU, CCNY / Fold change vs veh, CCNY / RFU, UFL1 / Fold change vs veh, UFL1 / RFU, COG3 / Fold change vs veh, COG3 / RFU, DIAPH2 / Fold change vs veh, DIAPH2 / RFU, SKA2 / Fold change vs veh, SKA2 / RFU, AFF3 / Fold change vs veh, AFF3 / RFU, LMF1 / Fold change vs veh, LMF1 / RFU, IPO11 / Fold change vs veh, IPO11 / RFU, DFFB / Fold change vs veh, DFFB / RFU, FOXP1 / Fold change vs veh, FOXP1 / RFU, CARD8 / Fold change vs veh, CARD8 / RFU, STRN3 / Fold change vs veh, STRN3 / RFU, ADK / Fold change vs veh, ADK / RFU, RASSF2 / Fold change vs veh, RASSF2 / RFU, WIPF1 / Fold change vs veh, WIPF1 / RFU, LARP1B / Fold change vs veh, LARP1B / RFU, RASA1 / Fold change vs veh, RASA1 / RFU, RB1 / Fold change vs veh, RB1 / RFU, PPFIA1 / Fold change vs veh, PPFIA1 / RFU, MAT2A / Fold change vs veh, MAT2A / RFU, CCT5 / Fold change vs veh, CCT5 / RFU, WDR92 / Fold change vs veh, WDR92 / RFU, CUX1 / Fold change vs veh, CUX1 / RFU, TTC7A / Fold change vs veh, TTC7A / RFU, TMEM135 / Fold change vs veh, TMEM135 / RFU, DEPTOR / Fold change vs veh, DEPTOR / RFU, CPM / Fold change vs veh, CPM / RFU, DNAJB6 / Fold change vs veh, DNAJB6 / RFU, CACNA2D3 / Fold change vs veh, CACNA2D3 / RFU, DTX4 / Fold change vs veh, DTX4 / RFU, TFCP2 / Fold change vs veh, TFCP2 / RFU, GMCL1 /// GMCL1P1 / Fold change vs veh, GMCL1 /// GMCL1P1 / RFU, AEBP2 / Fold change vs veh, AEBP2 / RFU, SNHG1 /// SNORD22 /// SNORD25 /// SNORD26 /// SNORD27 /// SNORD28 /// SNORD29 /// SNORD31 / Fold change vs veh, SNHG1 /// SNORD22 /// SNORD25 /// SNORD26 /// SNORD27 /// SNORD28 /// SNORD29 /// SNORD31 / Fold change (Aza/veh), C12orf56 (ProbeSet 11735607_a_at) / Fold change (ACY-1035/veh), C12orf56 (ProbeSet 11735607_a_at) / Fold change (Aza/veh), FGFR1OP (ProbeSet 11751329_s_at) / Fold change (ACY-1035/veh), FGFR1OP (ProbeSet 11751329_s_at) / Fold change (Aza/veh), VPS36 (ProbeSet 11739960_a_at) / Fold change (ACY-1035/veh), VPS36 (ProbeSet 11739960_a_at) / RFU SYPL1 (11715823_x_at) / Fold change /veh SYPL1 (11715823_x_at) / RFU IGFBP7 (11715501_s_at) / Fold change /veh IGFBP7 (11715501_s_at) / RFU REEP3 (11722064_at) / Fold change /veh REEP3 (11722064_at) / RFU IGLL1 (11728026_x_at) / Fold change /veh IGLL1 (11728026_x_at): dose or concentration left out as unconfirmed.

Take `Nc1ccc(-c2cccs2)cc1NC(=O)c1ccc2c(c1)cc(C1CC1)n2CCN1CCOCC1` [ACY-1035]: the “RFU CAMK2N1 (11719241_x_at)” value came out at 51.25 RFU.

Values taken from PMC5218480 (PLoS ONE, 2017).
